Results on 2 compounds are retold here after patent publication US20200239530A1, “COMPOUNDS AND METHODS OF MODULATING PROTEIN DEGRADATION” (Vividion Therapeutics, Inc., priority 2017, published 2020).

Test in all cases: Cysteine liganding, probe competition
What all share (assay type): binding

Experiment [1] concerns the target T1, CDK16 Cyclin-dependent kinase 16 (Homo sapiens, UniProt Q00536).
T1 construct: 200 μL of lysate containing 5 mg/ml proteome was treated with 2 μL of 100× compound stock; endogenous in cells
As to conditions: for Liganded: CDK16 Res# 206, uniprot Q00536. The method in brief: (§1)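 Probe competition in native proteome: 5 mg/ml lysate, compound 1 hr 25° C, then desthiobiotin iodoacetamide (10 mM stock) 1 hr 25° C; acetone ppt, urea/DTT reduction, iodoacetamide alkylation, trypsin, streptavidin pull-down.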

The target in experiment [2] is T2, DECR2 Peroxisomal 2,4-dienoyl-CoA reductase (Homo sapiens, UniProt Q9NUI1).
T2 construct: 200 μL of lysate containing 5 mg/ml proteome was treated with 2 μL of 100× compound stock; endogenous in cells
T2 sequence (Q9NUI1 1-292): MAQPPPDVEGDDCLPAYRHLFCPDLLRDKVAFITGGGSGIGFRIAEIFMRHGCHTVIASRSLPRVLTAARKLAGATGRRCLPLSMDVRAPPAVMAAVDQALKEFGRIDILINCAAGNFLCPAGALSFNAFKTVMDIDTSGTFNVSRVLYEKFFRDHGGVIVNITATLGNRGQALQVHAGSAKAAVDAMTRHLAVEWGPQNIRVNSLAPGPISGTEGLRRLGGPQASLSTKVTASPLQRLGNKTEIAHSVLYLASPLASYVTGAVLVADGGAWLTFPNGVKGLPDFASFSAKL
To be noted: for Liganded: DECR2 Res# 120, uniprot Q9NUI1. The procedure, abridged: as §1

The target in experiment [3] is T3, UBR2 E3 ubiquitin-protein ligase UBR2 (Homo sapiens, UniProt Q8IWV8).
T3 construct: Cells were resuspended in cold PBS on ice and sonicated with a probe sonicator to achieve lysis; endogenous in cells
T3 sequence (Q8IWV8 whole entry): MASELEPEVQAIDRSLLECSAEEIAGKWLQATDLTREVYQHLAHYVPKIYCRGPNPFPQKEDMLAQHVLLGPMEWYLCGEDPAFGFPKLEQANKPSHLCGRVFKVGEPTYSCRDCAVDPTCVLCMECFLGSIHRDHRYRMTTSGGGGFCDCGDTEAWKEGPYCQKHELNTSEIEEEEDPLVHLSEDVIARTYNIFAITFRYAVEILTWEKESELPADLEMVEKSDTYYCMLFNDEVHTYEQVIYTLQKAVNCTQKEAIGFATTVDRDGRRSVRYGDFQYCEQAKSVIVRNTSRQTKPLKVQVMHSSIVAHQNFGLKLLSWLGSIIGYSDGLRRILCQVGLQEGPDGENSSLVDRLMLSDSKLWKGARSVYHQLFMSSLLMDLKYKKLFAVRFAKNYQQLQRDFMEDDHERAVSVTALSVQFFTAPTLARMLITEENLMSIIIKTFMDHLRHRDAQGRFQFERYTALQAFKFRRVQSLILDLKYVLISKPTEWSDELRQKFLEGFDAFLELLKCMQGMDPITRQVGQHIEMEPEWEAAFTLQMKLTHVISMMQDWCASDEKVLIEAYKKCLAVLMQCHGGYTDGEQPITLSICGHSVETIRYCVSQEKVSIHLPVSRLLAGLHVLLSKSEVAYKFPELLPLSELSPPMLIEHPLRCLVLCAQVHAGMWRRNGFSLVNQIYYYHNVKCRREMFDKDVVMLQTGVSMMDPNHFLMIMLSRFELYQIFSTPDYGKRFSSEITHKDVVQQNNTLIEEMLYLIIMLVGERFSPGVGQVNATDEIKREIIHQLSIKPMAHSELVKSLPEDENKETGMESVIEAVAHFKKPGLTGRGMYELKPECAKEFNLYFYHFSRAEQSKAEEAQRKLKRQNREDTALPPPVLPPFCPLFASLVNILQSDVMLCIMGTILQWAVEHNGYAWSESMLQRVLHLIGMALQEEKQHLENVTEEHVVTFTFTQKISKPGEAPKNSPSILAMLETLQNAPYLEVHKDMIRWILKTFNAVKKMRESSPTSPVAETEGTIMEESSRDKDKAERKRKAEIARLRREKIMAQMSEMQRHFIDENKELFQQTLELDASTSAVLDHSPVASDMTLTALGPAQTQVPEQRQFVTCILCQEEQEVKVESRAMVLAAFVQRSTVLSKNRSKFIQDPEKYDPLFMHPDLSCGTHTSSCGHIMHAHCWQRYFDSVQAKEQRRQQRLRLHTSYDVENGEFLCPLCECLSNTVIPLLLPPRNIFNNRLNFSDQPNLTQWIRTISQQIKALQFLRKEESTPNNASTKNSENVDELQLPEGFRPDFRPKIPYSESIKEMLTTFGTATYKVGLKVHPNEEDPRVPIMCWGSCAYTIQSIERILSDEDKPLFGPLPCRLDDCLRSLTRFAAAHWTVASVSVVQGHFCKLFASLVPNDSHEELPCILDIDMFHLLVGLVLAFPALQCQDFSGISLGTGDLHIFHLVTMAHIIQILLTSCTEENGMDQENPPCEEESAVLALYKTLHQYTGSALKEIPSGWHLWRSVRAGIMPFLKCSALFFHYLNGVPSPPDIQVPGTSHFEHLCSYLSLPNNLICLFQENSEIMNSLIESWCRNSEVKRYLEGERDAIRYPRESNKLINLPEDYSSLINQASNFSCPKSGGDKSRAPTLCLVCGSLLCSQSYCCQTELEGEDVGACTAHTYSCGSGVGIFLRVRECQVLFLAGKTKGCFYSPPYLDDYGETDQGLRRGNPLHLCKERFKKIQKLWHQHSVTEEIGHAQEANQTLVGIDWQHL
The method in brief:
as §1

For experiment [4], the target named is T4, TRIM65 Tripartite motif-containing protein 65 (Homo sapiens, UniProt Q6PJ69).
T4 construct: Cells were resuspended in cold PBS on ice and sonicated with a probe sonicator to achieve lysis; endogenous in cells
T4 sequence (Q6PJ69 1-517): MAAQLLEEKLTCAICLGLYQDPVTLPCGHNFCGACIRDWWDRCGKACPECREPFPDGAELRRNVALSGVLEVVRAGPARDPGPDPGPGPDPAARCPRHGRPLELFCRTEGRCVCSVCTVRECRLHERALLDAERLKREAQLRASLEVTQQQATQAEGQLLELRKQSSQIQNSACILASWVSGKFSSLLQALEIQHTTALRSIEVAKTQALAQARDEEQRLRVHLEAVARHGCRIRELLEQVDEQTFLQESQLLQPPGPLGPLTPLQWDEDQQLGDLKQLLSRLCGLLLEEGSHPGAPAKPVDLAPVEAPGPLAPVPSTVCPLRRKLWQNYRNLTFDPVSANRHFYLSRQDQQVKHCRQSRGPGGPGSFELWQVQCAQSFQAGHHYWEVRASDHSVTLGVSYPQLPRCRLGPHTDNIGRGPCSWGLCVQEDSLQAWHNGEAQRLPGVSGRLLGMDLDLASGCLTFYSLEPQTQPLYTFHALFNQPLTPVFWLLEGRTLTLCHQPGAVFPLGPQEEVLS
The method in brief:
as §1

T1 sequence (Q00536 whole entry): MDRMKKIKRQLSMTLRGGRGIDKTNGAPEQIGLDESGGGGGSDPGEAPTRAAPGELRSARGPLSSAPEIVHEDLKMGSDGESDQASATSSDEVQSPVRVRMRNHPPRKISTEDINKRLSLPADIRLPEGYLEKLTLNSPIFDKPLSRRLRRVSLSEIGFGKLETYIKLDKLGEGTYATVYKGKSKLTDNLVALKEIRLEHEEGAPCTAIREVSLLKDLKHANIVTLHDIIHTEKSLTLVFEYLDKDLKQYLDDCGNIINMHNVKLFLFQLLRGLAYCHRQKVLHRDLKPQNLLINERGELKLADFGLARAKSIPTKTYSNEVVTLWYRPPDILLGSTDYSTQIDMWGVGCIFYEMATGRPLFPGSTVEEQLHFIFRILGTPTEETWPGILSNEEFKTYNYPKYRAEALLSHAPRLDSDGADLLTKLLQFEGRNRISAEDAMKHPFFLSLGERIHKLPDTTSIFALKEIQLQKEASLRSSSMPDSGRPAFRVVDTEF

Turning to `COc1ccc2c(c1)CCCN2C(=O)CCl` [KB02], the Liganded entry in experiment [1] was “YES”; in experiment [2], “YES”; in experiment [3] (UBR2 Res# 1717, uniprot Q8IWV8) it was “YES”; in experiment [4] (TRIM65 Res# 320, uniprot Q6PJ69), “YES”.

With `O=C(CCl)Nc1cc(C(F)(F)F)cc(C(F)(F)F)c1` [KBO3], the Liganded entry in experiment [1] and in experiment [2] was “YES” each time. Besides, the “100 Max” value in experiment [1] (uniprot Q00536) worked out at 50.67; in experiment [2] (uniprot Q9NUI1) it was 66.9; in experiment [3] (uniprot Q8IWV8), 18.5; in experiment [4] (uniprot Q6PJ69), 35.1. Besides, the 100 ave in experiment [1] (uniprot Q00536) is 28.2075; in experiment [2] (uniprot Q9NUI1), 66.9; in experiment [3] (uniprot Q8IWV8), 8.3; in experiment [4] (uniprot Q6PJ69), 19.4. Besides, the 500 ave was determined as 79.225 in experiment [1] (uniprot Q00536), 85 in experiment [2] (uniprot Q9NUI1), 60.0 in experiment [3] (uniprot Q8IWV8) and 60.2 in experiment [4] (uniprot Q6PJ69). The “500 Max” value in experiment [1] (uniprot Q00536, in % (unit assumed)) amounted to 80.44; in experiment [2] (uniprot Q9NUI1), 85; in experiment [3] (uniprot Q8IWV8, unit assumed), 65.9%; in experiment [4] (uniprot Q6PJ69), 70.9.
